Measured values taken from patent US20050096327A1, “Novel norepinephrine reuptake inhibitors for the treatment of central nervous system disorders” (priority 2003, published 2005).

Key:
[1] = target: T1, human norepinephrine transporter (Homo sapiens, UniProt P23975); experiment: hNET receptor binding ([125I]-RTI-55, membranes of transfected HEK-293 cells); conditions: 50 pM [125I]-RTI-55, 90 min room temperature; IC50 converted by Cheng-Prusoff
T1 construct: host or cells: HEK-293
Protocol: (§1) Cell pastes of HEK-293 cells transfected with the human norepinephrine transporter were supplied by the Pfizer Ann Arbor Protein Expression and Production group. Pellets were resuspended in 400 to 700 ml of Krebs-HEPES assay buffer (25 mM HEPES, 122 mM NaCl, 3 mM KCl, 1.2 mM MgSO4, 1.3 mM CaCl2, and 11 mM glucose, pH 7.4) with a Polytron homogenizer at setting 7 for 30 sec. Aliquots of membranes (5 mg/ml protein) were stored in liquid nitrogen until used.
The binding assay was set up in Beckman deep-well polypropylene plates with a total volume of 250 μl containing: drug (10^−5M to 10^−12M), cell membranes, and 50 pM [^125I]-RTI-55 (Perkin Elmer, NEX-272; specific activity 2200 Ci/mmol). The reaction was incubated by gentle agitation for 90 min at room temperature and was terminated by filtration through Whatman GF/C filter plates using a Brandel 96-well plate harvester. Scintillation fluid (100 μl) was added to each well, and bound [^125I]-RTI-55 was determined using a Wallac Trilux Beta Plate Counter. Test compounds were run in duplicate, and specific binding was defined as the difference between binding in the presence and absence of 10 μM desipramine.
Excel and GraphPad Prism software were used for data calculation and analysis. IC50 values were converted to Ki values using the Cheng-Prusoff equation. The Ki values for the hNET are reported below in Table 1.

[2] = target: T2, human serotonin transporter (Homo sapiens, UniProt P31645); experiment: hSERT receptor binding ([125I]-RTI-55, membranes of transfected HEK-293 cells); conditions: 50 pM [125I]-RTI-55, 90 min room temperature; IC50 converted by Cheng-Prusoff
T2 construct: host or cells: HEK-293
Protocol: as §1, with “serotonin” for “norepinephrine”, “Group.” for “group.”, “mL” for “ml”, “Setting” for “setting”, “seconds.” for “sec.”, “(˜2.5 mg/mL” for “(5 mg/ml”
Assays were set up in FlashPlates pre-coated with 0.1% PEI in a total volume of 250 μL containing: drug (10^−5M to 10^−12M), cell membranes, and 50 pM [^125I]-RTI-55 (Perkin Elmer, NEX-272; specific activity 2200 Ci/mmol). The reaction was incubated and gently agitated for 90 minutes at room temperature, and terminated by removal of assay volume. Plates were covered, and bound [^125I]-RTI-55 was determined using a Wallac Trilux Beta Plate Counter. Test compounds were run in duplicate, and specific binding was defined as the difference between binding in the presence and absence of 10 μM citalopram.
Excel and GraphPad Prism software were used for data calculation and analysis. IC50 values were converted to Ki values using the Cheng-Prusoff equation. The Ki values for the hSERT are reported below in Table 1.

T1 sequence (P23975 whole entry): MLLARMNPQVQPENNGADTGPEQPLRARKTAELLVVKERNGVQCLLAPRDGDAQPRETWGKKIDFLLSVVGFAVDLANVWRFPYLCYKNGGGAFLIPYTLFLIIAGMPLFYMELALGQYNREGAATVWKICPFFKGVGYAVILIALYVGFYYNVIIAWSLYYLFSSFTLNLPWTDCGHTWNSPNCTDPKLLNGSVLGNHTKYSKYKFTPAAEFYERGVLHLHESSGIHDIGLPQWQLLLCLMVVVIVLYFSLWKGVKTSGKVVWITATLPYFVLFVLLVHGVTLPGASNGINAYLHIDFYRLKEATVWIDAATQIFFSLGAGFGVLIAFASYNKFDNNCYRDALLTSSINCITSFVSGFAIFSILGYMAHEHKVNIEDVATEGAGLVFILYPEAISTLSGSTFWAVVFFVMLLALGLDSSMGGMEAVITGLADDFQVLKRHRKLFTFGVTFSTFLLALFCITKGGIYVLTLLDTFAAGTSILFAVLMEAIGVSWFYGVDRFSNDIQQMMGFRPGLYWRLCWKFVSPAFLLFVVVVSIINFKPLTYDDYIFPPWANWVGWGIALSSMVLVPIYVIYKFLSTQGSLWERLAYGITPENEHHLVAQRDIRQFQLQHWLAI
T2 sequence (P31645 whole entry): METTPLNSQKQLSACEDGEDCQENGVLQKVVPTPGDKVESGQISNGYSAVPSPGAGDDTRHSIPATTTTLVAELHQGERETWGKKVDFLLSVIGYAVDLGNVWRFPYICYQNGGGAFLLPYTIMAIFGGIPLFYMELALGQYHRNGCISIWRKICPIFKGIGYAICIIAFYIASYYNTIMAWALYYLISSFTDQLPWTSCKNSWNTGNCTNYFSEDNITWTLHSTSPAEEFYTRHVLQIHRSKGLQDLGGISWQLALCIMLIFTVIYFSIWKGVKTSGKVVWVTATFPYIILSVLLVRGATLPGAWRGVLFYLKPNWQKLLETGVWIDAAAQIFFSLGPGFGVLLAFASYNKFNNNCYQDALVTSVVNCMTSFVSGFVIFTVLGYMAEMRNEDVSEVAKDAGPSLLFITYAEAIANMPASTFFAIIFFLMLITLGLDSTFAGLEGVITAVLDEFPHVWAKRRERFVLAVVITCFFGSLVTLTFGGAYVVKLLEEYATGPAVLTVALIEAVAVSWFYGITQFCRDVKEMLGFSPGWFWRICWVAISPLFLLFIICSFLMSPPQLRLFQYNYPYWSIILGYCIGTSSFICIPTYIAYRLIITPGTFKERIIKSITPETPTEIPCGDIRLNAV

SMILES | Ki [1] [nM] | Ki [2] [nM]
Clc1cccc(-c2nc(N3CCNCC3)nc3ccccc23)c1 [Example 113, 4-(3-chloro-phenyl)-2-piperazin-1-yl-quinazoline] | 28.6 | 119
Clc1ccc(-c2nc(N3CCNCC3)nc3ccccc23)cc1Cl [Example 115, 4-(3,4-dichloro-phenyl)-2-piperazin-1-yl-quinazoline] | 114 | 332
Fc1ccc2c(-c3cccc(F)c3F)nc(N[C@@H]3CCNC3)nc2c1 [Example 116, R-[4-(2,3-Difluoro-phenyl)-7-fluoro-quinazolin-2-yl]-pyrrolidin-3-yl-amine] | 138 | 963
Cc1cc(F)ccc1-c1nc(N2CCNCC2)nc2cc(F)ccc12 [Example 117, 7-Fluoro-4-(4-fluoro-2-methyl-phenyl)-2-piperazin-1-yl-quinazoline] | 32.9 | 114
Cc1cc(F)ccc1-c1nc(N2CCNCC2)nc2cc(Cl)ccc12 [Example 118, 7-Chloro-4-(4-fluoro-2-methyl-phenyl)-2-piperazin-1-yl-quinazoline] | 67.2 | 49
Fc1ccc2c(-c3ccc(F)c(F)c3)nc(N3CCNCC3)nc2c1 [Example 119, 4-(3,4-Difluoro-phenyl)-7-fluoro-2-piperazin-1-yl-quinazoline] | 7.3 | 22.7
Fc1ccc2c(-c3ccc(Cl)cc3Cl)nc(N3CCNCC3)nc2c1 [Example 120, 4-(2,4-Dichloro-phenyl)-7-fluoro-2-piperazin-1-yl-quinazoline] | 95 | 34.1
Fc1ccc2nc(N3CCNCC3)nc(-c3cccc(F)c3F)c2c1 [Example 121, 4-(2,3-Difluoro-phenyl)-6-fluoro-2-piperazin-1-yl-quinazoline] | 15.7 | 32.5

Second part, the compound after the results:

Ki [1] [nM] | Ki [2] [nM] | SMILES
12.1 | 15.5 | Fc1ccc(-c2nc(N3CCNCC3)nc3ccc(F)cc23)c(F)c1 [Example 122, 4-(2,4-Difluoro-phenyl)-6-fluoro-2-piperazin-1-yl-quinazoline]
28.5 | 47.2 | Fc1cc2nc(N3CCNCC3)nc(-c3cccc(F)c3F)c2cc1F [Example 123, 4-(2,3-Difluoro-phenyl)-6,7-difluoro-2-piperazin-1-yl-quinazoline]
21.6 | 28.1 | C[C@H]1CNCCN1c1nc(-c2cccc(F)c2F)c2ccc(F)cc2n1 [Example 124, S-4-(2,3-Difluoro-phenyl)-7-fluoro-2-(2-methyl-piperazin-1-yl)-quinazoline]
32.2 | 636 | Clc1ccc(Cl)c(-c2nc(N3CCNCC3)nc3ccccc23)c1 [Example 125, 4-(2,5-dichloro-phenyl)-2-piperazin-1-yl-quinazoline]
3.7 | 107 | Fc1cc(F)cc(-c2nc(N3CCNCC3)nc3ccccc23)c1 [Example 126, 4-(3,5-difluoro-phenyl)-2-piperazin-1-yl-quinazoline]
33.9 | 58.6 | C[C@H]1CNCCN1c1nc(-c2c(F)cccc2F)c2ccccc2n1 [Example 127, S-4-(2,6-Difluoro-phenyl)-2-(2-methyl-piperazin-1-yl)-quinazoline]
35.5 | 11.4 | Clc1ccc2nc(N3CCNCC3)nc(-c3ccccc3)c2c1 [Example 128, 6-Chloro-4-phenyl-2-piperazin-1-yl-quinazoline]
25.6 | 8.4 | Fc1ccccc1-c1nc(N2CCNCC2)nc2ccc(Cl)cc12 [Example 129, 4-(2-Fluoro-phenyl)-6-chloro-2-piperazin-1-yl-quinazoline]
24.7 | 44.3 | C[C@@H]1CNCCN1c1nc(-c2cccc(F)c2F)c2ccc(F)cc2n1 [Example 130, R-4-(2,3-Difluoro-phenyl)-7-fluoro-2-(2-methyl-piperazin-1-yl)-quinazoline]
30 | 4.8 | Fc1cccc(F)c1-c1nc(N2CCNCC2)nc2ccc(Cl)cc12 [Example 131, 4-(2,6-Difluoro-phenyl)-6-chloro-2-piperazin-1-yl-quinazoline]
